Experimental data from patent US7541359B2, “N-heteroarylpiperazinyl ureas as modulators of fatty acid amide hydrolase” (Janssen Pharmaceutica N.V., priority 2005, dated 2009).

Experiments:
Type in all cases: biochemical
Rat FAAH = target: T1, Rat FAAH (Rattus norvegicus, UniProt P97612); test: Assay Method 3: FAAH assay, homogenate of SK-N-MC cells transfected with rat FAAH; settings: rat FAAH transfected SK-N-MC cell homogenate; 3H-AEA tracer 80 nM; rt 1 h
T1 construct: expressed in transfected cells; host or cells: SK-N-MC cells, electroporated, G418-selected clones
T1 sequence (P97612 1-579): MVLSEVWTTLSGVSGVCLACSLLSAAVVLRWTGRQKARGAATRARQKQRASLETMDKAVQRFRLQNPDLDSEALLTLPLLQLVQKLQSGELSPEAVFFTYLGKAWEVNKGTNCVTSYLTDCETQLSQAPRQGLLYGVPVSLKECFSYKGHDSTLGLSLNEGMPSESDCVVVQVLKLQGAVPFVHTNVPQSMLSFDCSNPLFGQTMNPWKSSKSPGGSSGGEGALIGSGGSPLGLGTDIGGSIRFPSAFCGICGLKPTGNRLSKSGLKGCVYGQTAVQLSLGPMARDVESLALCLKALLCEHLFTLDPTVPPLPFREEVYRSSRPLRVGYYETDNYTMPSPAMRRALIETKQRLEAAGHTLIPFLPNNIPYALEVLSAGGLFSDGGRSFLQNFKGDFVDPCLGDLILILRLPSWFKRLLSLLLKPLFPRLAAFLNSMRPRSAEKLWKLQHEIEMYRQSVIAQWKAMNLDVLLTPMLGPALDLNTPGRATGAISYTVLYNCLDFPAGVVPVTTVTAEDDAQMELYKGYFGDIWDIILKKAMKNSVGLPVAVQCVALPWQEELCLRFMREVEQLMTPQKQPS
Experimental: Assay Method 3 A. Transfection of Cells with Rat FAAH
A 10-cm tissue culture dish with a confluent monolayer of SK-N-MC cells was split 2 days (d) prior to transfection. Using sterile technique, the media was removed and the cells were detached from the dish by the addition of trypsin. One fifth of the cells were then placed onto a new 10-cm dish. Cells were grown in a 37° C. incubator with 5% CO2 in Minimal Essential Media Eagle with 10% Fetal Bovine Serum. After 2 d, cells were approximately 80% confluent. These cells were removed from the dish with trypsin and pelleted in a clinical centrifuge. The pellet was re-suspended in 400 μL complete media and transferred to an electroporation cuvette with a 0.4 cm gap between the electrodes. Supercoiled rat FMH cDNA (1 μg) was added to the cells and mixed. The voltage for the electroporation was set at 0.25 kV, and the capacitance was set at 960 μF. After electroporation, the cells were diluted into complete media (10 mL) and plated onto four 10-cm dishes. Because of the variability in the efficiency of electroporation, four different concentrations of cells were plated. […] After 10 d, dishes were analyzed for surviving colonies of cells. Dishes with well-isolated colonies were used. Cells from individual colonies were isolated and tested.
The assay mixture consisted of 50 μL of the cell homogenate, 10 μL of the test compound, and 40 μL of anandamide [1-^3H-ethanolamine] (^3H-AEA, Perkin-Elmer, 10.3 Ci/mmol), which was added last, for a final tracer concentration of 80 nM. The reaction mixture was incubated at rt for 1 h. During the incubation, 96-well Multiscreen filter plates (catalog number MAFCNOB50: Millipore, Bedford, Mass., USA) were loaded with 25 μL of activated charcoal (Multiscreen column loader, catalog number MACL09625, Millipore) and washed once with 100 μL of MeOH. […] After the 1 h incubation, 60 μL of the reaction mixture were transferred to the charcoal plates, which were then assembled on top of the DYNEX plates using Centrifuge Alignment Frames (catalog number MACF09604, Millipore). The unbound labeled ethanolamine was centrifuged through to the bottom plate (5 min at 2000 rpm), which was preloaded with the scintillant, as described above. The plates were sealed and left at rt for 1 h before counting on a Hewlett Packard TopCount.

FAAH [1] = target: T2, FAAH (Homo sapiens, UniProt O00519); test: Assay Method 1: FAAH assay, T84 cell homogenate, 3H-anandamide hydrolysis; design: T84 frozen pellets (contents of 1-4×15 cm culture dishes) were homogenized in 300 mL of FAAH assay buffer; endogenous in cells; host or cells: T84 cells (homogenate); settings: 3H-AEA tracer 200 nM, rt 1 h
T2 sequence (O00519 1-579): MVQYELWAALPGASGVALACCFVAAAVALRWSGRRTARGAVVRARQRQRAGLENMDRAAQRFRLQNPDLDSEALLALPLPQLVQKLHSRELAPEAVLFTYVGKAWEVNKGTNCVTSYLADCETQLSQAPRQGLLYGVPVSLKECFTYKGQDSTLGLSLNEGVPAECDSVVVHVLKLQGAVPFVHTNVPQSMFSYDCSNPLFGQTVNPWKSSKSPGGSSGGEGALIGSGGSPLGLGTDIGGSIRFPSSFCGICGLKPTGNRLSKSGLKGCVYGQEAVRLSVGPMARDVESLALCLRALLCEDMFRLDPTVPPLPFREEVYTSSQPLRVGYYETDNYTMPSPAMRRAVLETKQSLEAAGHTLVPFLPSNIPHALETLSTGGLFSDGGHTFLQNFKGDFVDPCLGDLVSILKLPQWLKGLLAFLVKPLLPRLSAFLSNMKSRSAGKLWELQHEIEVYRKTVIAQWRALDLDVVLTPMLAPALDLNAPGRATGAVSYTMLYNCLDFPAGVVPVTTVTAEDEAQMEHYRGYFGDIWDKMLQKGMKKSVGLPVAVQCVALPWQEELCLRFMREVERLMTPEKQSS
Experimental: The assay mixture was prepared from 50 μL of the cell homogenate, 10 μL of the test compound, and 40 μL of anandamide [1-^3H-ethanolamine] (^3H-AEA; Perkin-Elmer, 10.3 Ci/mmol), which was added last, for a final tracer concentration of 200 nM. The reaction mixture was incubated at rt for 1 hour (h). During the incubation, 96-well Multiscreen filter plates (catalog number MAFCNOB50; Millipore, Bedford, Mass. USA) were loaded with 25 μL of activated charcoal (Multiscreen column loader, catalog number MACL09625, Millipore) and washed once with 100 μL of MeOH. […] After the 1 h incubation, 60 μL of the reaction mixture were transferred to the charcoal plates, which were then assembled on top of the DYNEX plates using Centrifuge Alignment Frames (catalog number MACF09604, Millipore). The unbound, labeled ethanolamine was centrifuged through to the bottom plate (5 min at 2000 rpm), which was preloaded with the scintillant, as described above. The plates were sealed and left at rt for 1 h before counting on a Hewlett Packard TopCount.

FAAH [2] = target: T2, FAAH; test: Assay Method 2: FAAH assay, homogenate of SK-N-MC cells transfected with human FAAH; design: expressed in transfected cells; host or cells: SK-N-MC cells, electroporated, G418-selected clones; settings: human FAAH transfected SK-N-MC cell homogenate; 3H-AEA tracer 80 nM; rt 1 h
Experimental: Assay Method 2 A. Transfection of Cells with Human FAAH
A 10-cm tissue culture dish with a confluent monolayer of SK-N-MC cells was split 2 days (d) prior to transfection. Using sterile technique, the media was removed and the cells were detached from the dish by the addition of trypsin. One fifth of the cells were then placed onto a new 10-cm dish. Cells were grown in a 37° C. incubator with 5% CO2 in Minimal Essential Media Eagle with 10% Fetal Bovine Serum. After 2 d, cells were approximately 80% confluent. These cells were removed from the dish with trypsin and pelleted in a clinical centrifuge. The pellet was re-suspended in 400 μL complete media and transferred to an electroporation cuvette with a 0.4 cm gap between the electrodes. Supercoiled human FMH cDNA (1 μg) was added to the cells and mixed. The voltage for the electroporation was set at 0.25 kV, and the capacitance was set at 960 μF. After electroporation, the cells were diluted into complete media (10 mL) and plated onto four 10-cm dishes. Because of the variability in the efficiency of electroporation, four different concentrations of cells were plated. The ratios used were 1:20, 1:10, and 1:5, with the remainder of the cells being added to the fourth dish. The cells were allowed to recover for 24 h before adding the selection media (complete media with 600 μg/mL G418). After 10 d, dishes were analyzed for surviving colonies of cells. Dishes with well-isolated colonies were used. Cells from individual colonies were isolated and tested.
The assay mixture consisted of 50 μL of the cell homogenate, 10 μL of the test compound, and 40 μL of anandamide [1-^3H-ethanolamine] (^3H-AEA, Perkin-Elmer, 10.3 Ci/mmol), which was added last, for a final tracer concentration of 80 nM. The reaction mixture was incubated at rt for 1 h. During the incubation, 96-well Multiscreen filter plates (catalog number MAFCNOB50; Millipore, Bedford, […]., USA) were loaded with 25 μL of activated charcoal (Multiscreen column loader, catalog number MACL09625, Millipore) and washed once with 100 μL of MeOH. Also during the incubation, 96-well DYNEX MicroLite plates (catalog number NL510410) were loaded with 100 μL of MicroScint40 (catalog number 6013641, Packard Bioscience, Meriden, Conn., USA). After the 1 h incubation, 60 μL of the reaction mixture were transferred to the charcoal plates, which were then assembled on top of the DYNEX plates using Centrifuge Alignment Frames (catalog number MACF09604, Millipore). The unbound labeled ethanolamine was centrifuged through to the bottom plate (5 min at 2000 rpm), which was preloaded with the scintillant, as described above. The plates were sealed and left at rt for 1 h before counting on a Hewlett Packard TopCount.

Structure (SMILES) | IC50 (Rat FAAH) [nM] | IC50 (FAAH [1]) [nM] | IC50 (FAAH [2]) [nM]
O=C(Nc1ccccc1)N1CCN(c2nc(N3CCCCC3)ns2)CC1 [Example 27, 4-(3-Piperidin-1-yl-[1,2,4]thiadiazol-5-yl)-piperazine-1-carboxylic acid phenylamide] | 1100 | – | 260
O=C(Nc1ccccc1)N1CCN(c2nc(-c3ccco3)ns2)CC1 [Example 40, 4-(3-Furan-2-yl-[1,2,4]thiadiazol-5-yl)-piperazine-1-carboxylic acid phenylamide] | 2000 | – | 540
O=C(Nc1ccccc1)N1CCN(c2nc(-c3cccs3)ns2)CC1 [Example 42, 4-(3-Thiophen-2-yl-[1,2,4]thiadiazol-5-yl)-piperazine-1-carboxylic acid phenylamide] | 300 | – | 60
O=C(Nc1ccccc1)N1CCN(c2nc(-c3ccoc3)ns2)CC1 [Example 41, 4-(3-Furan-3-yl-[1,2,4]thiadiazol-5-yl)-piperazine-1-carboxylic acid phenylamide] | 590 | – | 350
O=C(Nc1ccccc1)N1CCN(c2nc(N3CCOCC3)ns2)CC1 [Example 44, 4-(3-Morpholin-4-yl-[1,2,4]thiadiazol-5-yl)-piperazine-1-carboxylic acid phenylamide] | > 10000 | – | > 10000
O=C(Nc1ccccc1)N1CCN(c2nc(-c3ccsc3)ns2)CC1 [Example 43, 4-(3-Thiophen-3-yl-[1,2,4]thiadiazol-5-yl)-piperazine-1-carboxylic acid phenylamide] | 120 | – | 130
CC1CCN(c2nsc(N3CCN(C(=O)Nc4ccccc4)CC3)n2)CC1 [Example 29, 4-[3-(4-Methyl-piperidin-1-yl)-[1,2,4]thiadiazol-5-yl]-piperazine-1-carboxylic acid phenylamide] | 5000 | – | > 10000
O=C(Nc1ccccc1)N1CCN(c2nc(N3CCCC3)ns2)CC1 [Example 28, 4-(3-Pyrrolidin-1-yl-[1,2,4]thiadiazol-5-yl)-piperazine-1-carboxylic acid phenylamide] | 5000 | – | 3000

Molecules with a lower IC50 (Rat FAAH), results first:

IC50 (Rat FAAH) [nM] | IC50 (FAAH [1]) [nM] | IC50 (FAAH [2]) [nM] | Structure (SMILES)
18 | 28 | – | O=C(Nc1ccncc1)N1CCN(c2nc(-c3ccccc3)ns2)CC1 [Example 33, 4-(3-Phenyl-[1,2,4]thiadiazol-5-yl)-piperazine-1-carboxylic acid pyridin-4-ylamide]
84 | – | 43 | Cc1cccc(-c2nsc(N3CCN(C(=O)Nc4ccccc4)CC3)n2)c1 [Example 38, 4-(3-m-Tolyl-[1,2,4]thiadiazol-5-yl)-piperazine-1-carboxylic acid phenylamide]
30 | – | 160 | O=C(Nc1ncccn1)N1CCN(c2nc(-c3ccccc3)ns2)CC1 [Example 31, 4-(3-Phenyl-[1,2,4]thiadiazol-5-yl)-piperazine-1-carboxylic acid pyrimidin-2-ylamide]
77 | – | 450 | O=C(Nc1nccs1)N1CCN(c2nc(-c3ccccc3)ns2)CC1 [Example 32, 4-(3-Phenyl-[1,2,4]thiadiazol-5-yl)-piperazine-1-carboxylic acid thiazol-2-ylamide]
57 | – | 60 | O=C(Nc1ccccc1)N1CCN(c2nc(-c3cc(Cl)cc(Cl)c3)ns2)CC1 [Example 39, 4-[3-(3,5-Dichloro-phenyl)-[1,2,4]thiadiazol-5-yl]-piperazine-1-carboxylic acid phenylamide]
46 | – | – | O=C(Nc1ccccc1)N1CCN(c2nc(-c3ccccc3)ns2)CC1 [Example 1, 4-(3-Phenyl-[1,2,4]thiadiazol-5-yl)-piperazine-1-carboxylic acid phenylamide]
